# Test results as given in US10017468B2, “Substituted pyrrolidines as G-protein coupled receptor 43 agonists” (Ogeda SA, priority 2009, dated 2018).
# Tested on: ob/ob mice
# Test: Oral glucose tolerance test (OGTT) in ob/ob mice
# Format: in vivo
# Settings: bi-daily 50 mg/kg during 28 days, AUC from -15 to 120 min
# Procedure: Ob/ob or obese mice are leptin-deficient mice that eat excessively and become profoundly obese, hyperinsulinemic and hyperglycemic. It is an animal model of type II diabetes. Such model can be used for oral glucose tolerance tests (OGTTs). A total of sixteen (16) male ob/ob mice (6 weeks of age) were obtained from Harlan. Upon arrival to the animal unit, mice were housed 4 per cage in rodent cages mounted with feeders containing regular chow. The mice were put in a 12/12 h light-dark cycle (light from 0600-1800 h) with controlled temperature conditions (22-24° C.). Fed blood glucose and body-weight was measured on day −2 in the morning between 08:00 AM and 09:00 AM. Animals were randomized into 2 groups according to fed glucose levels (on day −2). […]
# Day 1 is the first day of dosing. […] At −15 min, blood glucose was measured (using a glucose analyzer) and animals were dosed with compounds of the invention or vehicle. At time point 0, blood glucose was measured again and glucose was administered by oral gavage (1 g/kg glucose). The blood glucose was then measured at time points 15, 30, 45, 60 and 120 minutes. […] The percentages of AUC inhibition induced by compounds of the invention were calculated as follows: % of AUC inhibition: [1−(AUC compound/AUC vehicule)]*100.
smiles,measurement,value
"COc1ccccc1-c1ccc(C(=O)N2[C@@H](c3ccccc3Cl)CC[C@H]2C(=O)O)cc1 [Compound 1, (2S,5R)-5-(2-chlorophenyl)-1-(2′-methoxy-[1,1′-biphenyl]-4-carbonyl)pyrrolidine-2-carboxylic acid]","% of AUC inhibition (blood glucose, OGTT)",40%
